Experimental data published in patent US6680322B2, “Compounds specific to adenosine A1 receptors and uses thereof” (OSI Pharmaceuticals, Inc., priority 1999, dated 2004).

Tests used:
[1] = molecular target: T1, human A1 adenosine receptor (Homo sapiens, UniProt P30542); conditions: cited from earlier work
T1 sequence (P30542 1-326): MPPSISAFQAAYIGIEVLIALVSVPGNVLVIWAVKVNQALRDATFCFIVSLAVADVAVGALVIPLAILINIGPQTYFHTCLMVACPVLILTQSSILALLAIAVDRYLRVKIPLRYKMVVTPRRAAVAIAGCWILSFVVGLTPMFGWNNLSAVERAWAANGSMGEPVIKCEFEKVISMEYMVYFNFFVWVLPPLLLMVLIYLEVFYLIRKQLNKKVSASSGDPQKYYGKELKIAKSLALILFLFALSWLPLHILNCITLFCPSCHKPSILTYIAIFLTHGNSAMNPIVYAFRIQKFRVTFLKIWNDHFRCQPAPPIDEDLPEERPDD

[2] = molecular target: T2, human A2a receptor subtype (Homo sapiens, UniProt P29274); test: Adenosine 2a receptor subtype competition radioligand binding ([3H]CGS-21680, HEK293 membranes); conditions: Table 13; % activity @ 10 μM (footnote 8)
T2 construct: expressed in transfected cells; host or cells: HEK-293 (Cadus clone #5)

[3] = molecular target: T3, human A1 receptor subtype (Homo sapiens, UniProt P30542)
T3 sequence (P30542 1-326): T1 sequence (P30542 1-326)

[4] = molecular target: T4, human A3 receptor subtype (Homo sapiens, UniProt P0DMS8); test: Adenosine 3 receptor competition radioligand binding ([125I]AB-MECA, HEK293 membranes); conditions: Table 13; % activity @ 10 μM (footnote 8)
T4 construct: expressed in transfected cells; host or cells: HEK293
T4 sequence (P0DMS8 1-318): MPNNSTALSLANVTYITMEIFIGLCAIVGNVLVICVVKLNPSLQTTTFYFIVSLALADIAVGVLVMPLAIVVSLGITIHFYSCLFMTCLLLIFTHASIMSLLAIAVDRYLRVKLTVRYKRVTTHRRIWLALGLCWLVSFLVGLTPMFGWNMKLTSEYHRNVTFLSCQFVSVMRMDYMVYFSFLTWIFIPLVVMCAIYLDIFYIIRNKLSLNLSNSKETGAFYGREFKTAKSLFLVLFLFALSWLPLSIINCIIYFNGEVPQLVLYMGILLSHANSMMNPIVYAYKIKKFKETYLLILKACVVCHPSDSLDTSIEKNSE

T2 sequence (P29274 whole entry): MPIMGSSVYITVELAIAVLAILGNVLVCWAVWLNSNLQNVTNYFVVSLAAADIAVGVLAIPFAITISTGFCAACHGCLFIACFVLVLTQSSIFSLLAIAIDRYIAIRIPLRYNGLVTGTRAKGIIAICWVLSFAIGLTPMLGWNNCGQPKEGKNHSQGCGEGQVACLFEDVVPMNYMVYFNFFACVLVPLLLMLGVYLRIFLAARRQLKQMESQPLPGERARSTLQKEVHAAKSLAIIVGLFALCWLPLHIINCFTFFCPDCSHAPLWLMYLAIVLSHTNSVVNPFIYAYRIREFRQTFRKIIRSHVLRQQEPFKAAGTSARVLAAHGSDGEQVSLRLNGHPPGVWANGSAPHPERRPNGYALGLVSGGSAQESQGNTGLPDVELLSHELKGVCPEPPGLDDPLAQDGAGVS

| Structure (SMILES) | melting point | further results |
| --- | --- | --- |
| CC(Cc1ccccc1)Nc1ncnc2c1ncn2[C@@H]1O[C@H](CO)[C@@H](O)[C@H]1O (single isomer, unassigned; (-)) [PIA, (−)-N6-(2-phenylisopropyl)-adenosine] |  | reported affinity [1]: approximately 50 nM |
| CNC(=O)NCCCNc1nc(-c2ccccc2)nc2[nH]c(C)c(C)c12 [Compound 1310] |  | A2a binding, % activity [2]: 76% |
| Cc1[nH]c2nc(-c3ccccc3)nc(NCCNC(=O)C3(N)CC3)c2c1C [Compound 1313] |  | A2a binding, % activity [2]: 65%; A1 binding, % activity ([3]; Table 13, % activity @ 10 μM (footnote 8)): 30% |
| O[C@H]1CC[C@H](Nc2nc(-c3ccncc3)nc3[nH]ccc23)CC1 [Compound 1321] |  | A3 binding, % activity [4]: 54%^8 |
| O[C@H]1CC[C@H](Nc2nc(-c3ccccc3)nc3[nH]c(CN4CCOCC4)cc23)CC1 [Compound 1503] |  | Ki-A1 (selectivity versus A2a, A2b, A3) ([3]; Table 15): * (at least 10 times more selective than other three subtypes) |
| NC(=O)[C@@H]1CCCN1c1nc(-c2ccccc2)nc2[nH]ccc12 [Compound 1602] | 236 to 238 °C |  |
| COCc1cc2c(N3CCCC3C(N)=O)nc(-c3ccccc3)nc2[nH]1 (stereo not shown) [Compound 1605] | 213 to 215 °C |  |
| NC(=O)[C@@H]1C[C@H](O)CN1c1nc(-c2ccccc2)nc2[nH]ccc12 [Compound 1606, 4-Hydroxy-1-(2-phenyl-7H-pyrrolo[2,3-d]pyrimidin-4-yl]-pyrrolidine-2-carboxylic Acid Amide] | 268 to 271 °C |  |
| NC(=O)C1CCCN1c1nc(-c2ccccc2)nc2[nH]c(C(=O)O)cc12 (stereo not shown) [Compound 1619, [4-(2-Carbamoylpyrrolidin-1-yl)-2-phenyl-7H-pyrrolo[2,3-d]pyrimidine-6-carboxylic Acid]] | 220 °C (dec.) |  |
| COC(=O)c1cc2c(NC3CCC(O)CC3)nc(-c3ccccc3)nc2[nH]1 (stereo not shown) [Compound 1627, 4-(4-Hydroxy-cyclohexylamino)-2-phenyl-7H-pyrrolo[2,3-d]pyrimidine-6-carboxylic Acid Methyl Ester] | 225 to 227 °C |  |
| NC(=O)c1cc2c(NC3CCC(O)CC3)nc(-c3ccccc3)nc2[nH]1 (stereo not shown) [Compound 1630, 4-(4-Hydroxy-cyclohexylamino)-2-phenyl-7H-pyrrolo[2,3-d]pyrimidine-6-carboxylic Acid Amide] | 210 to 220 °C (dec.) |  |
| CC(=O)NCCNc1nc(-c2ccccc2)nc2[nH]c(COc3ccccc3)cc12 [Example 17] | 196 to 197 °C |  |
